How the values were obtained:
Type in all cases: in vivo
beet [1] = test: Test Example 3: soil treatment, effect on crop; f: beet; settings: treatment dosage 315 g/ha
How it was run: (§1)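 Crop and weed responses were judged three weeks after a uniform surface spray of the water-diluted emulsion at the given g/ha rate. Seeds sat beneath about 1.5 cm of sterilized diluvial soil, and boxes stood in a greenhouse at 25 to 30° C.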

catchweed [2] = test: Test Example 3: weedkilling efficacy through soil treatment; O: catchweed; settings: treatment dosage 315 g/ha
How it was run: as §1

green foxtail [3] = test: Test Example 4: weedkilling efficacy by foliar treatment; E: green foxtail; settings: treatment dosage 315 g/ha
How it was run: (§2)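 Seeds are spot-sown into sterilized diluvial soil and covered with about 1.5 cm of soil. After 14 days' greenhouse growth at 25 to 30° C, plants are sprayed on stems and leaves with diluted emulsion at the stated g/ha rate, then scored at 3 weeks.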

catchweed [4] = test: Test Example 4: weedkilling efficacy by foliar treatment; O: catchweed; settings: treatment dosage 315 g/ha
How it was run: as §2

directly sown rice [5] = test: Test Example 4: foliar treatment, effect on crop; b: directly sown rice; settings: treatment dosage 315 g/ha
How it was run: as §2

chickweed [6] = test: Test Example 4: weedkilling efficacy by foliar treatment; N: chickweed; settings: treatment dosage 315 g/ha
How it was run: as §2

crabgrass [7] = test: Test Example 3: weedkilling efficacy through soil treatment; D: crabgrass; settings: treatment dosage 315 g/ha
How it was run: as §1

transplanted rice = test: Test Example 1: preemergent weed treatment in the submerged state, effect on crop; a: transplanted rice; settings: treatment dosage 252 g/ha
How it was run: (§3)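 Alluvial soil in Wagner pots flooded to 4 cm; barnyard grass, bulrush and oval-leafed pondweed seeds sown, then 2.5-leaf rice seedlings transplanted. Same day, emulsified compound diluted in water to set g/ha dosages and applied to water surface; greenhouse 25–30 °C, effect scored by criteria after 3 weeks.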

corn [8] = test: Test Example 3: soil treatment, effect on crop; c: corn; settings: treatment dosage 315 g/ha
How it was run: as §1

soybean [9] = test: Test Example 3: soil treatment, effect on crop; d: soybean; settings: treatment dosage 315 g/ha
How it was run: as §1

oval-leafed pondweed [10] = test: Test Example 2: weedkilling efficacy, growth period weed treatment in the submerged state; C: oval-leafed pondweed; settings: treatment dosage 252 g/ha
How it was run: (§4)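 First, alluvial soil in pots is flooded to 4 cm and mixed seed is sown. Next, plants grow in a greenhouse at 25 to 30° C until the 1-2 leaf stage. Then diluted emulsion is applied onto the water surface at the given g/ha rate, and injury is assessed after 3 weeks.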

black-grass [11] = test: Test Example 4: weedkilling efficacy by foliar treatment; H: black-grass; settings: treatment dosage 315 g/ha
How it was run: as §2

black-grass [12] = test: Test Example 3: weedkilling efficacy through soil treatment; H: black-grass; settings: treatment dosage 315 g/ha
How it was run: as §1

Indian mallow [13] = test: Test Example 4: weedkilling efficacy by foliar treatment; K: Indian mallow; settings: treatment dosage 315 g/ha
How it was run: as §2

corn [14] = test: Test Example 4: foliar treatment, effect on crop; c: corn; settings: treatment dosage 315 g/ha
How it was run: as §2

redroot pigweed [15] = test: Test Example 3: weedkilling efficacy through soil treatment; L: redroot pigweed; settings: treatment dosage 315 g/ha
How it was run: as §1

birds-eye speedwell [16] = test: Test Example 4: weedkilling efficacy by foliar treatment; p: birds-eye speedwell; settings: treatment dosage 315 g/ha
How it was run: as §2

beet [17] = test: Test Example 4: foliar treatment, effect on crop; f: beet; settings: treatment dosage 315 g/ha
How it was run: as §2

oval-leafed pondweed [18] = test: Test Example 1: weedkilling efficacy, preemergent weed treatment in the submerged state; C: oval-leafed pondweed; settings: treatment dosage 252 g/ha
How it was run: as §3

crabgrass [19] = test: Test Example 4: weedkilling efficacy by foliar treatment; D: crabgrass; settings: treatment dosage 315 g/ha
How it was run: as §2

redroot pigweed [20] = test: Test Example 4: weedkilling efficacy by foliar treatment; L: redroot pigweed; settings: treatment dosage 315 g/ha
How it was run: as §2

bulrush [21] = test: Test Example 2: weedkilling efficacy, growth period weed treatment in the submerged state; B: bulrush; settings: treatment dosage 252 g/ha
How it was run: as §4

wild oat [22] = test: Test Example 3: weedkilling efficacy through soil treatment; G: wild oat; settings: treatment dosage 315 g/ha
How it was run: as §1

Indian mallow [23] = test: Test Example 3: weedkilling efficacy through soil treatment; K: Indian mallow; settings: treatment dosage 315 g/ha
How it was run: as §1

fig-leafed goosefoot [24] = test: Test Example 4: weedkilling efficacy by foliar treatment; M: fig-leafed goosefoot; settings: treatment dosage 315 g/ha
How it was run: as §2

wheat [25] = test: Test Example 4: foliar treatment, effect on crop; e: wheat; settings: treatment dosage 315 g/ha
How it was run: as §2

chickweed [26] = test: Test Example 3: weedkilling efficacy through soil treatment; N: chickweed; settings: treatment dosage 315 g/ha
How it was run: as §1

green foxtail [27] = test: Test Example 3: weedkilling efficacy through soil treatment; E: green foxtail; settings: treatment dosage 315 g/ha
How it was run: as §1

fig-leafed goosefoot [28] = test: Test Example 3: weedkilling efficacy through soil treatment; M: fig-leafed goosefoot; settings: treatment dosage 315 g/ha
How it was run: as §1

soybean [29] = test: Test Example 4: foliar treatment, effect on crop; d: soybean; settings: treatment dosage 315 g/ha
How it was run: as §2

bulrush [30] = test: Test Example 1: weedkilling efficacy, preemergent weed treatment in the submerged state; B: bulrush; settings: treatment dosage 252 g/ha
How it was run: as §3

wheat [31] = test: Test Example 3: soil treatment, effect on crop; e: wheat; settings: treatment dosage 315 g/ha
How it was run: as §1

Italian ryegrass [32] = test: Test Example 4: weedkilling efficacy by foliar treatment; I: Italian ryegrass; settings: treatment dosage 315 g/ha
How it was run: as §2

Italian ryegrass [33] = test: Test Example 3: weedkilling efficacy through soil treatment; I: Italian ryegrass; settings: treatment dosage 315 g/ha
How it was run: as §1

barnyard grass [34] = test: Test Example 2: weedkilling efficacy, growth period weed treatment in the submerged state; A: barnyard grass; settings: treatment dosage 252 g/ha
How it was run: as §4

birds-eye speedwell [35] = test: Test Example 3: weedkilling efficacy through soil treatment; p: birds-eye speedwell; settings: treatment dosage 315 g/ha
How it was run: as §1

barnyard grass [36] = test: Test Example 1: weedkilling efficacy, preemergent weed treatment in the submerged state; A: barnyard grass; settings: treatment dosage 252 g/ha
How it was run: as §3

wild oat [37] = test: Test Example 4: weedkilling efficacy by foliar treatment; G: wild oat; settings: treatment dosage 315 g/ha
How it was run: as §2

directly sown rice [38] = test: Test Example 3: soil treatment, effect on crop; b: directly sown rice; settings: treatment dosage 315 g/ha
How it was run: as §1

COc1ccnc(NC(=O)C(C)(C)N2COC(C)=C(c3ccccc3)C2=O)c1 [B-2-63]
f (beet) effect on crop grade (beet [1]): 0 (weed kill ratio 5% or less (practically no effect)) | O (catchweed) weedkilling efficacy grade (catchweed [2]): 3 (weed kill ratio 40% or more, less than 70%) | E (green foxtail) weedkilling efficacy grade (green foxtail [3]): 3 (weed kill ratio 40% or more, less than 70%) | O (catchweed) weedkilling efficacy grade (catchweed [4]): 2 (weed kill ratio 20% or more, less than 40%) | b (directly sown rice) effect on crop grade (directly sown rice [5]): 0 (weed kill ratio 5% or less (practically no effect)) | N (chickweed) weedkilling efficacy grade (chickweed [6]): 2 (weed kill ratio 20% or more, less than 40%) | D (crabgrass) weedkilling efficacy grade (crabgrass [7]): 4 (weed kill ratio 70% or more, less than 90%) | a (transplanted rice) effect on crop grade (transplanted rice): 0 (weed kill ratio 5% or less (practically no effect)) | c (corn) effect on crop grade (corn [8]): 0 (weed kill ratio 5% or less (practically no effect)) | d (soybean) effect on crop grade (soybean [9]): 0 (weed kill ratio 5% or less (practically no effect)) | C (oval-leafed pondweed) weedkilling efficacy grade (oval-leafed pondweed [10]): 3 (weed kill ratio 40% or more, less than 70%) | H (black-grass) weedkilling efficacy grade (black-grass [11]): 0 (weed kill ratio 5% or less (practically no effect)) | H (black-grass) weedkilling efficacy grade (black-grass [12]): 1 (weed kill ratio 5% or more, less than 20%) | K (Indian mallow) weedkilling efficacy grade (Indian mallow [13]): 0 (weed kill ratio 5% or less (practically no effect)) | c (corn) effect on crop grade (corn [14]): 0 (weed kill ratio 5% or less (practically no effect)) | L (redroot pigweed) weedkilling efficacy grade (redroot pigweed [15]): 1 (weed kill ratio 5% or more, less than 20%) | P (birds-eye speedwell) weedkilling efficacy grade (birds-eye speedwell [16]): 1 (weed kill ratio 5% or more, less than 20%) | f (beet) effect on crop grade (beet [17]): 0 (weed kill ratio 5% or less (practically no effect)) | C (oval-leafed pondweed) weedkilling efficacy grade (oval-leafed pondweed [18]): 4 (weed kill ratio 70% or more, less than 90%) | D (crabgrass) weedkilling efficacy grade (crabgrass [19]): 3 (weed kill ratio 40% or more, less than 70%) | L (redroot pigweed) weedkilling efficacy grade (redroot pigweed [20]): 0 (weed kill ratio 5% or less (practically no effect)) | B (bulrush) weedkilling efficacy grade (bulrush [21]): 4 (weed kill ratio 70% or more, less than 90%) | G (wild oat) weedkilling efficacy grade (wild oat [22]): 2 (weed kill ratio 20% or more, less than 40%) | K (Indian mallow) weedkilling efficacy grade (Indian mallow [23]): 0 (weed kill ratio 5% or less (practically no effect)) | M (fig-leafed goosefoot) weedkilling efficacy grade (fig-leafed goosefoot [24]): 3 (weed kill ratio 40% or more, less than 70%) | e (wheat) effect on crop grade (wheat [25]): 0 (weed kill ratio 5% or less (practically no effect)) | N (chickweed) weedkilling efficacy grade (chickweed [26]): 3 (weed kill ratio 40% or more, less than 70%) | E (green foxtail) weedkilling efficacy grade (green foxtail [27]): 4 (weed kill ratio 70% or more, less than 90%) | M (fig-leafed goosefoot) weedkilling efficacy grade (fig-leafed goosefoot [28]): 3 (weed kill ratio 40% or more, less than 70%) | d (soybean) effect on crop grade (soybean [29]): 2 (weed kill ratio 20% or more, less than 40%) | B (bulrush) weedkilling efficacy grade (bulrush [30]): 5 (weed kill ratio 90% or more, (practically complete withering)) | e (wheat) effect on crop grade (wheat [31]): 0 (weed kill ratio 5% or less (practically no effect)) | I (Italian ryegrass) weedkilling efficacy grade (Italian ryegrass [32]): 1 (weed kill ratio 5% or more, less than 20%) | I (Italian ryegrass) weedkilling efficacy grade (Italian ryegrass [33]): 3 (weed kill ratio 40% or more, less than 70%) | A (barnyard grass) weedkilling efficacy grade (barnyard grass [34]): 3 (weed kill ratio 40% or more, less than 70%) | P (birds-eye speedwell) weedkilling efficacy grade (birds-eye speedwell [35]): 4 (weed kill ratio 70% or more, less than 90%) | A (barnyard grass) weedkilling efficacy grade (barnyard grass [36]): 5 (weed kill ratio 90% or more, (practically complete withering)) | G (wild oat) weedkilling efficacy grade (wild oat [37]): 0 (weed kill ratio 5% or less (practically no effect)) | b (directly sown rice) effect on crop grade (directly sown rice [38]): 0 (weed kill ratio 5% or less (practically no effect))
